Values joined by “and” are separate entries in the source; they are usually repeats but may differ in a detail not shown here. Identical values can stand only once. Counter-ions that a name gives are not always drawn. Residues, ends and D or L forms follow the SMILES beside them.
Key:
islet cell grafts = test: Islet graft survival after induction of HO-1 by CoPP in donors and recipients; format: in vivo, mouse; conditions: 350–400 islets; for Rejection day: individual recipients
Description: Whether induction of HO-1 in donors and recipients would protect islet cell grafts was investigated. The following procedures were utilized to generate the data illustrated in Table 1, below. A mouse model was utilized for the experiments. Donors of islet cells were treated with cobalt protoporphyrin (CoPP) (20 mg/kg) once per day before islet cell isolation. Recipients of islet cell grafts were treated with CoPP (20 mg/kg) once per day on days 1, 3, 5, 7 or with CoPP (10 mg/kg) once per day on days 1, 3, 5, 7, 9, 11, 13, 15, and 17. Treatment with CoPP induces expression of heme oxygenase-1 (HO-1).
Listed under “rejection day” are the days to which islets survived. For instance, “>51×2”, means that islets in 2 recipients were still surviving after 51 days. The mean date of rejection is shown in the fourth column.

2F–2B ECs = format: cell-based, murine
Description: The murine 2F–2B endothelial cell line (ATCC) was transiently transfected as described elsewhere (Soares et al., Nature Med. 4:1073, 1998; Brouard et al, J. Exp. Med. 192:1015, 2000). All experiments were conducted 24–48 h after transfection. é-galactosidase-transfected cells were detected as described elsewhere (Soares et al., Nature Med. 4:1073, 1998; Brouard et al., J. Exp. Med. 192:1015, 2000). Percentage of viable cells was assessed by evaluating the number of é-galactosidase-expressing cells that retained normal morphology as described elsewhere (Soares et al., Nature Med. 4:1073, 1998; Brouard et al., J. Exp. Med. 192:1015, 2000). The number of random fields counted was determined to have a minimum of 200 viable transfected cells per control well. The percentage of viable cells was normalized for each DNA preparation to the number of transfected cells counted in the absence of the apoptosis-inducing agent (100% viability). All experiments were performed at least three times in duplicate. Actinomycin D (Act. D; Sigma) was dissolved in PBS and added to the culture medium (10 îg/ml) 24 h after transfection. SnPPIX (Porphyrin Products) was dissolved (10 îM) in 100 mM NaOH and conserved at −20° C. until used. SNPPIX was added to the culture medium (50 îM) 6 h after transfection. Human recombinant TNF-α (R&D Systems, Minneapolis, Minn.) was dissolved in PBS, 1% BSA, and added to the culture medium (10–100 ng/ml) 24 h after transfection.
Cells were exposed to compressed air or varying concentration of CO (250 and 10,000 ppm), as described elsewhere (Otterbein et al., Nature Med. 6:422, 2000; and Brouard et al., J. Exp. Med. 192:1015, 2000).
BAECs and 2F–2B ECs were transiently transfected. All experiments were carried out 24–48 h after transfection. The percentage of viable cells was assessed by evaluating the number of β-galactosidase-expressing cells that retained normal morphology. The number of random fields counted was determined to have a minimum of 200 viable transfected cells per control well. The percentage of viable cells was normalized for each DNA preparation to the number of transfected cells counted in the absence of the apoptosis-inducing agent (100% viability). All experiments were performed at least three times in duplicate.
Actinomycin D (Act.D; Sigma-Aldrich) was dissolved in PBS and added to the culture medium 24 h after transfection. The Act.D concentration used corresponded to the optimal concentration necessary to sensitize ECs to TNF-α mediated apoptosis, e.g., 10 μg/ml for 2F–2B ECs and 0.1 μg/ml for BAECs. When indicated, EC apoptosis was induced by etoposide (200 μM, 8 h; Calbiochem-Novabiochem) or by serum deprivation (0.1% FCS for 24 h). The iron chelator deferoxamine mesylate (DFO; Sigma-Aldrich) was dissolved in water and added to culture medium (1–100 μM) 1 h before the induction of apoptosis. Hemoglobin (Hb; Sigma-Aldrich) was dissolved (1 mM) in PBS, 10 mM Na2S2O4, dialyzed against PBS (2 h, 4° C., 1:800 dilution), and added to the culture medium (1–100 μM) 6 h after transfection. The guanylcyclase inhibitor 1H(1,2,4)oxadiazolo(4,3)quinoxalin-1 (ODQ; Calbiochem-Novabiochem) was dissolved in DMSO (Sigma-Aldrich) and added to the culture medium (10–100 μM) 6 h after transfection. Iron protoporphyrin ([FePP]/heme), cobalt protoporphyrin (CoPPIX), and tin protoporphyrin (SnPPIX; all from Porphyrin Products, Inc.) were dissolved (10 mM) in 100 mM NaOH and held at −20° C. until use. Metalloporphyrins were added to the culture medium (50 μM) 6 h after transfection. The cGMP analogue 8-bromo-cGMP sodium salt (8-Br-cGMP; Sigma-Aldrich) was dissolved in water and added to the culture medium (10–100 µM) 30 min before the induction of apoptosis. Human recombinant TNF- (R&D Systems) was dissolved in PBS and 1% BSA, and added to the culture medium (10–100 ng/ml) 24 h after transfection.
Cells were exposed to compressed air from a compressed air tank or varying concentrations of CO (250 and 10,000 ppm).

HO-1 = test: Western blot of HO-1 expression in cultured endothelial cells; format: cell-based, mouse; conditions: data not shown
Description: Endothelial cells were washed in PBS (pH 7.2), harvested by scraping, and lysed in Laemmli buffer. Electrophoresis was conducted under denaturing conditions with 10% polyacrylamide gels. Proteins were transferred onto a polyvinyldifluoridine membrane (immobilon P; Millipore, Bedford, Mass.) by electroblotting and detected with rabbit polyclonal Abs directed against human HO-1 or HO-2 (StressGen, Victoria, Canada) or é-tubulin (Boehringer Mannheim, Mannheim, Germany). Proteins were visualized by using HRP-conjugated donkey anti-rabbit IgG or goat anti-mouse IgG (Pierce) and the ECL assay (Amersham Life Science, Arlington Heights, Ill.) according to manufacturer's instructions.

[1] = tested on: rat platelets overlaid on mouse 2F–2B endothelial cells; test: Platelet aggregation assay, platelets overlaid on pretreated endothelial cells; format: cell-based; conditions: endothelial cells pretreated with protoporphyrin 50 μM; ADP 2 μM
Description: Mouse 2F–2B endothelial cells were cultured on 0.2% gelatin (Sigma) coated six-well plates in 88% DMEM (Life Technologies), 10% FCS (FCS), 100 U/ml penicillin, and 100 îg/ml streptomycin (Life Technologies). Confluent endothelial cells either were left untreated or were treated with the HO-inducing agent CoPPIX (50 îM; 18 h), the HO inhibitor SnPPIX (50 îM, 18 h), or both CoPPIX (50 îM, 15 h) and SnPPIX (50 îM, 3 h). Platelet-rich plasma was obtained by centrifugation (290-g, 12 min, 19° C.) of normal rat […] in 3.8% sodium citrate. Rat platelets (3–10^8 cells ml) were resuspended in HT buffer (8.9 mM NaHCO3, 0.8 mM KH2PO, 5.6 mM dextrose, 2.8 mM KCl solution, 0.8 mM MgCl2, 129 mM NaCl, 10 mM HEPES). Platelets were overlaid (5 min; 37° C.) on mouse endothelial cells, and platelet aggregation assays were conducted as described before (Kaczmarek et al, J. Biol. Chem. 271:33116, 1996) by using an aggregometer (Chrono-Log, Harestown, Pa.) and ADP (0.5–4 μM) as an agonist.

βTC3 cells = test: TNF-α mediated apoptosis of β-gal transfected βTC3 cells (percentage of viable cells); format: cell-based, murine; conditions: for inhibition of TNF-α mediated apoptosis: TNF-α 24 hours, inhibitor added two hours before TNF-α (Z-DEVD-FMK 10 μM, IETD-CHO 1 μM)
Description: The murine insulinoma cell line βTC3 (DSMZ, Braunschweig, Germany) was cultured in Dulbecco's Modified Eagle's Medium (DMEM) (Life Technologies, Grand Island, N.Y., USA) supplemented with 2 mM L-glutamine, 100 U/ml penicillin G, 100 U/ml streptomycin and 10% Fetal Calf Serum (FCS) (Life Technologies) and incubated in humidified 5% CO2/95% air at 37° C. This murine β-cell line, derived from transgenic mice carrying a hybrid insulin-promoter simian virus 40 tumor antigen, is known to maintain the features of differentiated β-cells for about 50 passages in culture. […] Compared to other frequently used transformed β-cell lines such as RIN-m5F and HIT, levels of secreted insulin are closer to normal β-cells in the βTC3 cell line. Thus, these cells are useful for studying β-cell regulation and gene expression (D'Ambra et al., Endocrinology 726:2815–22, 1990).
βTC3 were seeded at 3×10^5 cells in 16 mm wells and transfected 15 to 20 hours later using Lipofectamine plus™ reagents (Life Technologies) according to the manufacturer's instructions. Total DNA was maintained constant using empty pcDNA3 vector. The percentage of viable cells was assessed by normalizing the percentage of viable cells of each DNA preparation to the number of control-transfected cells without the apoptotic stimulus (100% viability) (Soares et al., Nature Med. 4:1073–1077, 1998; Sato et al., J. Immunol. 166:4185–4194, 2001).
Murine recombinant TNF-α (R&D Systems) was dissolved in PBS with 1% bovine serum albumin and added to the culture medium (17.5 ng/ml=500 U) 24 hours after transfection. The caspase-3 inhibitor Z-DEVD-FMK and the caspase-8 inhibitor IETD-CHO (Calbiochem, San Diego, Calif.) were dissolved in dimethyl sulphoxide (DMSO, Sigma) and added to the culture medium (10 μM and 1 μM respectively) two hours before treatment with TNF-α. Tin protoporphyrin (SnPPIX) (Porphyrin Products, Logan, Utah) was dissolved (10 mM) in 100 mM NaOH and added 6 hours after transfection to the culture medium (50 μM). The guanylyl cyclase inhibitor 1H[1,2,4]oxadiazolo[4,3-α]quinoxalin-1 (ODQ; Calbiochem) was dissolved in DMSO and added to the culture medium (100 μM) 6 hours after transfection. The cGMP analogue 8-bromoguanosine-3′-5′-cyclic-monophosphate (8-Br-cGMP) (Sigma) was dissolved in water and added to the culture medium (10 μM) 30 minutes before induction of apoptosis. The protein kinase G inhibitor KT5823 (Calbiochem) was dissolved in DMSO and added to the culture medium (1.6 μM) 6 hours after transfection.
Cells and islets were exposed to 1% carbon monoxide in compressed air balanced with 5% CO2, as described elsewhere (see, e.g., Otterbein et al., Nature Med. 6:422–428, 2000). Islets were incubated in RPMI medium pre-saturated with carbon monoxide (4° C. overnight, 1% CO, 5% CO2) for two hours at 37° C. while treatment with 1% CO, 5% CO2 was continued.

## C=CC1=C(C)c2cc3[n-]c(cc4nc(cc5[n-]c(cc1n2)c(C)c5CCC(=O)[O-])C(CCC(=O)[O-])=C4C)c(C)c3C=C.[Co+2].[H+].[H+] [CoPP, cobalt protoporphyrin]
Islet cell grafts; CoPP 10 mg/kg × 10
  Rejection day Mean ± SD: 40.5 ± 12.12 days
  Rejection/Total: 2/4
  Rejection day: > 51 days
Islet cell grafts; CoPP 20 mg/kg × 5
  Rejection day Mean ± SD: 44.85 ± 17.81 days
  Rejection/Total: 4/7
  Rejection day: >58 × 2, day and >67 × 1 day
2F–2B ECs; HO-1 transfected ECs, protoporphyrin 50 μM
  effect of protoporphyrin on the antiapoptotic effect of HO-1: did not suppress the antiapoptotic effect of HO-1 or that of bcl-2
HO-1
  expression of HO-1 in cultured endothelial cells: up-regulated the expression of HO-1
[1]
  platelet aggregation on stimulation by ADP: platelet aggregation was significantly inhibited

## CC(=O)N(O)CCCCCNC(=O)CCC(=O)N(O)CCCCCNC(=O)CCC(=O)N(O)CCCCCN [DFO, deferoxamine mesylate]
2F–2B ECs; DFO
  effect on EC apoptosis when HO-1 activity was inhibited by SnPPIX or the action of CO suppressed by Hb: still able to prevent EC apoptosis
2F–2B ECs; DFO 100 μM alone
  effect on EC apoptosis under inhibition of HO activity by SnPPIX: suppressed EC apoptosis, but to a lesser extent than HO-1
2F–2B ECs; DFO 1–100 μM
  effect on EC apoptosis induced by TNF-α plus Act.D: suppressed

## CC[C@H](C)[C@H](NC(C)=O)C(=O)N[C@@H](CCC(=O)O)C(=O)N[C@H](C(=O)N[C@H](C=O)CC(=O)O)[C@@H](C)O [IETD-CHO] (Ac-IETD-aldehyde)
βTC3 cells
  inhibition of TNF-α mediated apoptosis: 96%

## COC(=O)[C@@]1(OC)C[C@H]2O[C@]1(C)n1c3ccccc3c3c4c(c5c6ccccc6n2c5c31)C(=O)N(C)C4 [KT5823]
βTC3 cells; TNF-α, 1% CO, ODQ 100 μM, KT5823 1.6 μM
  effect on the anti-apoptotic effect of exogenous CO: suppressed the anti-apoptotic effect of exogenous carbon monoxide

## C[S+]([O-])c1ccc(-c2nc(-c3ccncc3)c(-c3ccc(F)cc3)[nH]2)cc1 (stereo not shown) [SB203580]
2F–2B ECs; SB203580 10–20 μM, dose dependent
  effect on the antiapoptotic action of HO-1: antiapoptotic action of HO-1 is suppressed

## COC(=O)CC[C@H](NC(=O)[C@H](CC(=O)OC)NC(=O)OCc1ccccc1)C(=O)N[C@H](C(=O)N[C@@H](CC(=O)OC)C(=O)CF)C(C)C [Z-DEVD-FMK]
βTC3 cells
  inhibition of TNF-α mediated apoptosis: 53%
